Experimental data as given in patent US20100266604A1, “USE OF TAM RECEPTOR INHIBITORS AS IMMUNOENHANCERS AND TAM ACTIVATORS AS IMMUNOSUPPRESSORS” (The Salk Institute for Biological Studies, priority 2007, published 2010).

Legend:
Assay type in all cases: cell-based, mouse
DCs = test: DC viability after Gas6 treatment
[1] = system: TLR-induced cytokine production in DCs; test: DC activation assay: TLR-induced cytokine production (ELISA / ISRE luciferase reporter)
Method: Splenic DC or BM-DCs (1×10^6 cells/ml) were cultured overnight in serum-free medium (StemSpan, StemCell Technologies Inc.) in the presence of the indicated concentrations of LPS from Salmonella minnesota R595 Re (Alexis), CpG-ODN 1668 (TCCATGACGTTCCGATGCT; SEQ ID NO: 19; Integrated DNA Technologies) or Poly I:C (InvivoGen) alone or in the presence of murine recombinant Gas6 (R&D Systems) or murine recombinant Protein S (produced as described in Prasad et al., (2006) Mol Cell Neurosci 33:96-108). Cytokine production was quantified in cell-free supernatants by ELISA (ebioscience for IL-12, IL-6 and TNFα and PBL-biomedical for IFNα) or by a luciferase assay using a cell line containing an ISRE-responsive element luciferase reporter construct for Type I IFN (Jiang et al., (2005) Nat Immunol 6:565-570).

[2] = system: IκBα and IκBβ degradation (NF-κB pathway) in BM-DCs; test: Quantitative Li-Cor Odyssey Western blot of TLR-induced IκB degradation
Method: (§1) Splenic DCs (1×10^6 cells/ml) or BM-DCs (5×10^6 cells/ml) were cultured in serum-free medium and treated with the indicated concentrations of murine recombinant Gas6, murine recombinant Protein S, the TLR ligands indicated above, recombinant mouse IFNα (PBL Biomedical laboratories), recombinant mouse Axl-FC chimera (R&D), cyclohexamide (Sigma) or Actinomycin D (Sigma). Whole cell lysates and RNA extraction were performed as indicated below.
(§2) DCs were washed in PBS and harvested in NuPage LDS sample buffer (Invitrogen) with 100 μM DTT. Whole cell lysates were resolved by electrophoresis, proteins were transferred to a PVDF membrane (Immobilon P, Millipore), blocked in 3% BSA/TBS-Tween-20 and probed with the indicated antibodies. For fluorescent western blotting with the Odyssey system, proteins were transferred to an Immobilon-FL PVDF membrane (Millipore) and incubated with two primary antibodies in 0.1% casein/PBS-Tween-20. Following incubation with fluorescence-labeled secondary antibodies, membranes were scanned with the Odyssey imaging system (LI-COR).

[3] = system: TRAF6 and TRAF3 polyubiquitylation in BM-DCs; test: Ubiquitylation assay of TRAF6 and TRAF3; conditions: 30 minutes LPS, 2-hour prior incubation with Gas6
Method: For ubiquitylation assays, 5×10^6 BM-DCs per condition were harvested in PBS containing 1% SDS and boiled for 5 minutes. PBS containing 1% Triton X-100, 1 mM DTT, 1 mM Na3VO4, 5 mM NaF and protease inhibitors (Complete, Roche) was added and the mixture was sonicated. Lysates were precleared for 1 hour by incubation with Immobilized rProteinA (RepliGen) and incubated overnight with primary antibody at 4° C. Immobilized rProteinA was added for the last 2 hours. The immunoprecipitates were washed in PBS containing 0.2% NP-40 and 0.5 M LiCl and resuspended and boiled in NuPage LDS sample buffer (Invitrogen) with 100 μM DTT.

[4] = system: IRAK-M, SHIP, ATF-3, IRF-4, Triad3A and Tollip mRNA in BM-DCs; test: Q-PCR of other negative regulators of TLR signaling; conditions: following TAM receptor activation with 50 nM Gas6
Method: as §1
(§3) After stimulation, cells were harvested, and total RNA was isolated using the RNeasy mini kit (Qiagen). Reverse transcription was performed according to manufacturer instructions with RT Superscript III (Invitrogen). PCR reactions were performed on an ABI Prism 7700 Sequence Detection System using SYBRGreen PCR master mix (Applied Biosystems). Each reaction was normalized against the expression of β-actin or GAPDH. Analyses of dissociation curves were performed with SDS software (Applied Biosystems) to ensure the absence of nonspecific amplification. Q-PCR primers used herein are listed below.

[5] = system: phospho-STAT1 (Y701), phospho-STAT2, phospho-STAT3 in DCs; test: Immunoblot of STAT phosphorylation in DCs
Method: as §1, §2

[6] = system: p38 and ERK1/2 phosphorylation in BM-DCs; test: Immunoblot of TLR-induced MAP kinase activation (phospho-p38, phospho-ERK1/2)
Method: as §1, §2

[7] = system: IRF-7 and IFI-204 mRNA in DCs; test: Q-PCR of IRF-7 and IFI-204 mRNA in DCs; conditions: BM-DCs, addition of Gas6 alone
Method: as §1, §3

[8] = system: SOCS1 and SOCS3 mRNA in DCs; test: Q-PCR of SOCS1 and SOCS3 mRNA in DCs
Method: as §1, §3

[9] = poly I:C, prior treatment with Gas6

LPS-induced production of IL-6 ([1]; Ifnar−/− DCs, Gas6): unable to inhibit | expression of IL6 triggered by LPS or CpG ([1]; STAT1−/− DCs, 50 nM Gas6, 15 hours): not inhibited | poly I:C-induced Type I IFN ([1]; TLR3 activated by poly I:C, 15 hours, 50 nM Gas6): comparable Gas6-mediated inhibition | LPS-induced IL6 and TNFα production ([1]; TLR4 activated by LPS, 15 hours, 50 nM Gas6): comparable Gas6-mediated inhibition | TLR9-induced production of Type I IFNs, IL6, and TNFα ([1]; wild-type DCs, overnight (15 hours) co-incubation with CpG, 50 nM Gas6): substantially inhibited | CpG-induced phosphorylation of p38 and ERK1/2 ([6]; 1 μM CpG, 2-hour prior incubation with ligand): completely blocked | activation of p38 and ERK1/2 as a consequence of TLR4 ligation ([6]; LPS, prior incubation with Gas6): inhibited | Activation of the MAP kinase pathway by TLR3 [6, 9]: inhibited
Substance: Gas6: murine recombinant Gas6 (R&D Systems), TAM receptor ligand/agonist
DC viability (DCs): unaffected | CpG-induced degradation of IκBα and IκBβ ([2]; BM-DCs, prior incubation with ligand): completely blocked | kinetics and magnitude of CpG-induced degradation of IκBα and IκBβ ([2]; in the presence of cycloheximide or actinomycin D): the same, irrespective of the presence or absence of Gas6 | Activation of the NF-κB pathway by TLR3 [2, 9]: inhibited | LPS-induced polyubiquitylation of TRAF6 and TRAF3 [3]: potently inhibited | induction of IRAK-M, SHIP, ATF-3, IRF-4, Triad3A, Tollip mRNAs [4]: none of these mRNAs displayed significant induction | activation of STAT2 and 3 ([5]; DC cultures, addition of Gas6): not detected | STAT1 tyrosine phosphorylation ([5]; Ifnar−/− BM-DCs, Gas6 application): incapable of activating STAT1 | STAT1 activation (phospho-STAT1 Y701) ([5]; TAM triple mutant DCs, Gas6): not seen | STAT1 activation (phospho-STAT1 Y701) ([5]; wild-type DCs, incubation with Gas6): activated | induction of IRF-7 and IFI-204 [7]: not induced | SOCS3 mRNA peak expression ([8]; BM-DCs, 50 nM Gas6, around 90 minutes): approximately 10 fold | SOCS1 expression ([8]; Ifnar−/− DCs, Gas6): unable to up-regulate | Gas6-mediated induction of SOCS1 mRNA ([8]; STAT1−/− DCs): completely abolished | Gas6 induction of SOCS3 mRNA ([8]; STAT1−/− DCs): substantially reduced | SOCS1 mRNA expression increase ([8]; WT BM-DCs, 50 nM Gas6, 120 minutes): approximately 10 fold
